According to patent US9636021B2, “Flavonoid compounds of low toxicity for biological imaging applications” (The University of Akron, priority 2014, dated 2017):

Key:
[1] = absorbance and fluorescence spectra in DMSO; format: physicochemical
Excerpt: The absorbance and fluorescence spectra of compounds 1-6 in dimethyl sulfoxide (DMSO) were investigated and the results are in Table 1.

[2] = target: bovine serum albumin (BSA) (Bos taurus, UniProt P02769); test: fluorescence turn-on with BSA in PBS buffer; format: binding; settings: for detection limit (10% increase in fluorescence emission) / visual recognizable detection limit (S/N above 3:1): BSA; for F(+)/F(−) fluorescence intensity with BSA / without BSA: BSA 1.0 mg/ml; for F(+)/F(−) fluorescence intensity with BSA / without BSA / λabs(+) / λem(+) / λabs(−) / λem(−): 10 μM dye; for F(+)/F(−) fluorescence intensity with BSA / without BSA / fluorescence in the absence of BSA / λabs(+) / λem(+) / λabs(−) / λem(−): 10 mM PBS, 0.5% DMSO, pH 7.4; for fluorescence in the absence of BSA: aqueous buffer; for λabs(+) / λem(+): with BSA 1.0 mg/ml; for λabs(−) / λem(−): without BSA
Method: In the aqueous buffer (0.5% DMSO, 10 mM of PBS, pH=7.4), the BSA binding-induced fluorescence turn-on was so large that it could be easily seen by naked eye. […] The intramolecular charge transfer along the D-A conjugated backbone plays a very important role in the environment-sensitivity of the flavone. All the evidence consistently pointed to the flavone dye entering the hydrophobic site of BSA.
Generally, the detection limit can be defined as the analyte concentration at which a 10% increase in fluorescence emission can be measured.
Therefore, the detection limits of compounds 1-6 were 2.6, 0.14, 0.59, 0.09, 14, and 3.4 μg/mL, respectively. For Off/On type fluorescent sensor, the Signal-to-Noise (S/N) ratio above 3:1 is considered reliable for visual evaluation. The visual recognizable detection limits of compounds 1-6 were calculated as 78, 4.2, 17.7, 2.7, 420, and 102 μg/mL, respectively. The reference range for serum albumin concentration in human blood plasma is approximately 35-50 mg/mL. Even in fish, the concentration of serum albumins can reach 0.5-5 mg/mL. The detection limits of the compounds were much lower than serum albumin concentration, indicating the capability for actual blood sample testing.

[3] = target: dye-BSA complexes (Bos taurus, UniProt P02769); test: photostability of dye-BSA complexes under continuous UV irradiation; format: physicochemical, bovine; settings: 365 nm, 500 μW/cm2, 10 μM dye, 1.0 mg/mL BSA
Method: The photostability of flavone dyes 1-6 in the presence of BSA was also examined to evaluate the application for long-term imaging. The dye-BSA complexes (10 μM of compounds 1-6, 1.0 mg/mL of BSA in 10 mM PBS buffer containing 0.5% DMSO, pH=7.4) were placed in cuvette cells, then were continuously irradiated under a hand-held UV lamp (λ=365 nm, 500 μW/cm2).

bovine serum albumin (BSA), sequence (P02769 25-607): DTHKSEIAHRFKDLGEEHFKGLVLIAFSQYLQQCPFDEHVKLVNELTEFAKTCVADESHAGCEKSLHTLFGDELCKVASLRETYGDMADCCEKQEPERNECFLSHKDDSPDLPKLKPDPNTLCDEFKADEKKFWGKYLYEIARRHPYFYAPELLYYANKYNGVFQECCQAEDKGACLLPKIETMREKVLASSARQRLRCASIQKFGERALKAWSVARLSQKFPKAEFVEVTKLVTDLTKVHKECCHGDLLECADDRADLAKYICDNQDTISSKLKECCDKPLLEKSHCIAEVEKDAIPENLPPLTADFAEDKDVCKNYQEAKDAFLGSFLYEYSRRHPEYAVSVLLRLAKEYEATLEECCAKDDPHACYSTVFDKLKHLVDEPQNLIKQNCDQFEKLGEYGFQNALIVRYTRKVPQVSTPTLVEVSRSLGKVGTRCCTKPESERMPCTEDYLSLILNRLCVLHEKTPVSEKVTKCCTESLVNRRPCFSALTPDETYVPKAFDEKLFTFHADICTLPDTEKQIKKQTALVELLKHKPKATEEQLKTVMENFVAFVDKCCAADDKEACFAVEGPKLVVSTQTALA
dye-BSA complexes, sequence (P02769 25-607, one chain of several): as the sequence (P02769 25-607) above

CCOCc1ccc2oc(-c3ccc(N(C)C)cc3)c(O)c(=O)c2c1 [compound 2, 2-(4-(dimethylamino)phenyl)-6-(ethoxymethyl)-3-hydroxy-4H-chromen-4-one]
Φ [1]: 14.1% | λabs [1]: 403 nm | detection limit (10% increase in fluorescence emission) [2]: 0.14 µg/mL | visual recognizable detection limit (S/N above 3:1) [2]: 4.2 µg/mL | F(+)/F(−) fluorescence intensity with BSA / without BSA [2]: 740 | fluorescence in the absence of BSA [2]: almost no fluorescence | λabs(+) [2]: 415 nm | λem(+) [2]: 506 nm | λabs(−) [2]: 410 nm | λem(−) [2]: 555 nm

Cc1ccc2oc(-c3ccc(N(C)C)cc3)c(O)c(=O)c2c1 [compound 3, 2-(4-(dimethylamino)phenyl)-3-hydroxy-6-methyl-4H-chromen-4-one]
Φ [1]: 11.0% | λabs [1]: 404 nm | detection limit (10% increase in fluorescence emission) [2]: 0.59 µg/mL | visual recognizable detection limit (S/N above 3:1) [2]: 17.7 µg/mL | F(+)/F(−) fluorescence intensity with BSA / without BSA [2]: 170 | fluorescence in the absence of BSA [2]: almost no fluorescence | λabs(+) [2]: 409 nm | λem(+) [2]: 552 nm | λabs(−) [2]: 400 nm | λem(−) [2]: 582 nm

CC(=O)Nc1ccc(-c2oc3ccccc3c(=O)c2O)cc1 [compound 5, N-(4-(3-hydroxy-4-oxo-4H-chromen-2-yl)phenyl)acetamide]
Φ [1]: 5.4% | λabs [1]: 363 nm | λem [1]: 505 nm | detection limit (10% increase in fluorescence emission) [2]: 14 µg/mL | visual recognizable detection limit (S/N above 3:1) [2]: 420 µg/mL | F(+)/F(−) fluorescence intensity with BSA / without BSA [2]: 7.0 | λabs(+) [2]: 365 nm | λem(+) [2]: 514 nm | λabs(−) [2]: 357 nm | λem(−) [2]: 452 nm | photostability under UV irradiation [3]: fluorescence quenching

Nc1ccc(-c2oc3ccccc3c(=O)c2O)cc1 [compound 6, 2-(4-aminophenyl)-3-hydroxy-4H-chromen-4-one]
Φ [1]: 7.2% | λabs [1]: 394 nm | detection limit (10% increase in fluorescence emission) [2]: 3.4 µg/mL | visual recognizable detection limit (S/N above 3:1) [2]: 102 µg/mL | F(+)/F(−) fluorescence intensity with BSA / without BSA [2]: 29 | λabs(+) [2]: 386 nm | λem(+) [2]: 512 nm | λabs(−) [2]: 373 nm | λem(−) [2]: 522 nm | photostability under UV irradiation [3]: fluorescence quenching
